Source: ChEMBL document CHEMBL1201862, “PubChem BioAssay data set” (2004)
The source made the active and inactive calls.

Experiments:
[1] = viability loss in Vero cells – cytotoxicity control for Vif-APOBEC3G degradation inhibitor project, dose response (AID 1117358); assay type: functional; settings: Vero
[2] = target: Sphingosine 1-phosphate receptor 2 (Homo sapiens, UniProt O95136); assay: Dose Response Cell Based Assay for Agonists of the S1P2 Receptor. [Related pubchem assays: 729, 736, 843 ]; assay type: functional
[3] = target: Glyceraldehyde-3-phosphate dehydrogenase (Homo sapiens, UniProt P04406)
[4] = target: T1, Bcl-2-related protein A1 (Mus musculus, UniProt Q07440); assay: small-molecule antagonists of Bfl-1/BH3 interaction – biochemical, TR-FRET, mouse Bfl-1, confirmation (AID 621);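 note: TR-FRET binding of GST-Bfl-1 to FITC-labelled Bid peptide via terbium antibody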
T1 sequence (Q07440 whole entry): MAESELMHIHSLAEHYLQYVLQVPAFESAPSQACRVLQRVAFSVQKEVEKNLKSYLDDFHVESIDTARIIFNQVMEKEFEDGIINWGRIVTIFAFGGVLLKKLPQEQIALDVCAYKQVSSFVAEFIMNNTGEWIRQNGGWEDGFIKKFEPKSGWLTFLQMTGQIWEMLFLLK

[5] = target: T1, Bcl-2-related protein A1; assay: Bfl-1 binding inhibitors, SAR follow-up, biochemical, fluorescence polarization (AID 1070)
[6] = target: E3 ubiquitin-protein ligase Mdm2 (Homo sapiens, UniProt Q00987); assay: MDM2-luc reporter signal enhancers, multi-concentration potency testing, MDM2 ubiquitin-protein ligase inhibitor program, whole-cell format, luminescence detection, 384-well microplate (AID 1394); assay type: functional;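 note: MDM2 E3 inhibitors raise luminescence so EC50 is for signal enhancement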
[7] = viability loss in HeLa cells – cytotoxicity control for MgcRacGAP inhibitor project, dose response (AID 624300); assay type: functional
[8] = blockers of HIV-1 envelope-mediated cell-cell fusion – cherry-pick, dose response (AID 652057); assay type: functional, cell-based
[9] = viability loss in CEM21 cells – cell-based, CellTiter-Glo luminescence, cherry-picked, cytotoxicity control for viral fusion inhibitor project, dose response (AID 652042); assay type: functional;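 note: potency for signal decrease meaning cytotoxicity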
[10] = target: Protein-tyrosine kinase 2-beta (Homo sapiens, UniProt Q14289);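 note: potency of inhibitors of PYK2 kinase phosphorylation of poly-GT substrate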
[11] = target: Cytochrome P450 2C19 (Homo sapiens, UniProt P33261); assay: Cytochrome panel assay with activity outcomes. Panel member name: p450-cyp2c19 Compounds with AC50 equal or less than 10 uM are considered active; assay type: functional; settings: read-out: AC50
[12] = target: T2, Cytochrome P450 1A2 (Homo sapiens, UniProt P05177);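 note: PubChem cytochrome P450 panel assay, CYP1A2 panel member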
T2 sequence (P05177 whole entry): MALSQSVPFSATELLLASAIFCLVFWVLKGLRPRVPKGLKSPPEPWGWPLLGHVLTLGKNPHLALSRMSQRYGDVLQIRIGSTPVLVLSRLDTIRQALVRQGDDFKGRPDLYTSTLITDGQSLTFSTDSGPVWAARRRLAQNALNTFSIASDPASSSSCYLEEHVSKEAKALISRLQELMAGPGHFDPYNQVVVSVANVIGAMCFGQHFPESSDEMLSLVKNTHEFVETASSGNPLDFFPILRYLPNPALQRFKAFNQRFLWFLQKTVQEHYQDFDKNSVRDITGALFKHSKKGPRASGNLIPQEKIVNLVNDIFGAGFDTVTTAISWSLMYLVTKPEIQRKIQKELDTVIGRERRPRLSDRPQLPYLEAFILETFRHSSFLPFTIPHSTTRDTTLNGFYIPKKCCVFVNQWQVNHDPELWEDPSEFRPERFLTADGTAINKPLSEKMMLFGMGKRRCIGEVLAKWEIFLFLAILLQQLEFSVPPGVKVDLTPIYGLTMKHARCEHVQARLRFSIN

[13] = target: Cytochrome P450 2C9 (Homo sapiens, UniProt P11712)
[14] = target: Cytochrome P450 3A4 (Homo sapiens, UniProt P08684);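 note: CYP3A4 tested as one member of a cytochrome P450 panel screen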
[15] = tested on: Streptococcus sp. 'group A'; assay: Streptococcus pyogenes SK(-)GAS viability under kanamycin – luminescence, BacTiterGlo, confirmation, counter-screen for streptokinase expression inhibitor project, dose response (AID 1900); assay type: functional, organism-based
[16] = target: T3, Streptokinase A (Streptococcus pyogenes serotype M1, UniProt P10520); assay: viability-normalized secreted streptokinase activity reduction – plasminogen activation absorbance, OD405, dose response (AID 1914); assay type: functional, Streptococcus pyogenes M1 GAS;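 note: secreted streptokinase activity via plasminogen activation per viability signal from cell pellet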
T3 sequence (P10520 whole entry): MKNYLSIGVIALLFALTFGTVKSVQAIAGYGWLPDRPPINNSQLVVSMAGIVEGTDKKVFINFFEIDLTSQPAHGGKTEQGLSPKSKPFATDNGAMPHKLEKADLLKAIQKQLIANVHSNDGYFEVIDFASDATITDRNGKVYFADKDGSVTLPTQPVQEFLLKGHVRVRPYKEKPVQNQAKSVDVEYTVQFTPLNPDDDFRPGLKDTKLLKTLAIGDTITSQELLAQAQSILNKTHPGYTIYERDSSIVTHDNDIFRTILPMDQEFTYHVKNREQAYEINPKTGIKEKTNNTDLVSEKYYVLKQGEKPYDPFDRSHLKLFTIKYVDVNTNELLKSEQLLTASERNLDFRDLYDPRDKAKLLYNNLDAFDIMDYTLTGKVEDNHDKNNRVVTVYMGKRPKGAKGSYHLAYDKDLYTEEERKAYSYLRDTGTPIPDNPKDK

[17] = tested on: Streptococcus; assay: GAS UMAA2166 growth inhibition – luminescence, BacTiterGlo, counter-screen for streptokinase expression inhibitor project, dose response (AID 1915); assay type: functional, organism-based;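 note: potency for reduction of bacterial viability or growth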
[18] = target: T4, Carboxy-terminal domain RNA polymerase II polypeptide A small phosphatase 1 (Homo sapiens, UniProt Q9GZU7); assay: CTDSP1 inhibitors, concentration-response, biochemical, absorbance readout, ultra-high-throughput screen actives (AID 540297); assay type: functional
T4 sequence (Q9GZU7 whole entry): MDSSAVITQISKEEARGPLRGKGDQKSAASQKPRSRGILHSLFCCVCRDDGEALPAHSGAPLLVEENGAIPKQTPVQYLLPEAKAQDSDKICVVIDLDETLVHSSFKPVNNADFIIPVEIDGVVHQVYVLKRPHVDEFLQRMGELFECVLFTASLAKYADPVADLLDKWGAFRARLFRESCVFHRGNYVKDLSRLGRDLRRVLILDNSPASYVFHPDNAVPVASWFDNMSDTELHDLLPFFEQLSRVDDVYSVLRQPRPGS

Chain of E3 ubiquitin-protein ligase Mdm2 (Q00987 whole entry): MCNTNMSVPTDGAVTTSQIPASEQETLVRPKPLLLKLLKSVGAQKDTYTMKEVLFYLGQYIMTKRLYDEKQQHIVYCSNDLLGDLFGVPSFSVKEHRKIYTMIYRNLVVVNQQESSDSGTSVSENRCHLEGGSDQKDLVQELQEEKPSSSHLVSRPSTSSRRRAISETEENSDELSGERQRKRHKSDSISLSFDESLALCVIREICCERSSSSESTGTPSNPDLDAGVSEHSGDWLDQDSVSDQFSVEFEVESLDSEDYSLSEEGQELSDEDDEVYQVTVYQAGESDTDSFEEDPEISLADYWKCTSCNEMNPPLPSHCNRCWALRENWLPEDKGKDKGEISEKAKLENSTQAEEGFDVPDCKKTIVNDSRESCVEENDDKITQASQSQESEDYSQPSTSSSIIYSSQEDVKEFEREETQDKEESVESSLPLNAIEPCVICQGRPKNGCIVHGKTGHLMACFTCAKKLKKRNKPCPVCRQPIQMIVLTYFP
Chain of Sphingosine 1-phosphate receptor 2 (O95136 whole entry): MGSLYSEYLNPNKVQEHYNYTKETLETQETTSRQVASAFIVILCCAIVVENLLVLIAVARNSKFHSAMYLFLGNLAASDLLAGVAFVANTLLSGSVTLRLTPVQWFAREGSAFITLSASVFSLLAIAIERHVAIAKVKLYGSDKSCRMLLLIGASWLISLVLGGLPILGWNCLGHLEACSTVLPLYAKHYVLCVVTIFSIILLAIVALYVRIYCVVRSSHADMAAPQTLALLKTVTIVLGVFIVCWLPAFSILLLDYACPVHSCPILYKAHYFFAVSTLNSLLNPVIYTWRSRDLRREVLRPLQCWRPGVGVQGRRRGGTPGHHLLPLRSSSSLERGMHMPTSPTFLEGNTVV
Chain of Cytochrome P450 2C19 (P33261 whole entry): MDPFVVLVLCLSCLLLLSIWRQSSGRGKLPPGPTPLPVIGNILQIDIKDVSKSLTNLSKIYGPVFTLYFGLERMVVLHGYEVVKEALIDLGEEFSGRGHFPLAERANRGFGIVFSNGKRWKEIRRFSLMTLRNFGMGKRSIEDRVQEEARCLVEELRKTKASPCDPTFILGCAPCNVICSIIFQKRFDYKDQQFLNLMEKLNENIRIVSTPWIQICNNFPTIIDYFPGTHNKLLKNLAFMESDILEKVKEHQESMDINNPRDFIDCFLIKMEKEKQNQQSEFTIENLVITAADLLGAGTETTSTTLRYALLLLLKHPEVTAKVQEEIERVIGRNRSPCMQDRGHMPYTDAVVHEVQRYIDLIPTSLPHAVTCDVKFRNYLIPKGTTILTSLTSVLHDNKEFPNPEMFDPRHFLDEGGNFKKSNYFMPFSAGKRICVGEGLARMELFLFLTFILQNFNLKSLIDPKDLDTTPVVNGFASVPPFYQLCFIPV
Chain of Protein-tyrosine kinase 2-beta (Q14289 whole entry): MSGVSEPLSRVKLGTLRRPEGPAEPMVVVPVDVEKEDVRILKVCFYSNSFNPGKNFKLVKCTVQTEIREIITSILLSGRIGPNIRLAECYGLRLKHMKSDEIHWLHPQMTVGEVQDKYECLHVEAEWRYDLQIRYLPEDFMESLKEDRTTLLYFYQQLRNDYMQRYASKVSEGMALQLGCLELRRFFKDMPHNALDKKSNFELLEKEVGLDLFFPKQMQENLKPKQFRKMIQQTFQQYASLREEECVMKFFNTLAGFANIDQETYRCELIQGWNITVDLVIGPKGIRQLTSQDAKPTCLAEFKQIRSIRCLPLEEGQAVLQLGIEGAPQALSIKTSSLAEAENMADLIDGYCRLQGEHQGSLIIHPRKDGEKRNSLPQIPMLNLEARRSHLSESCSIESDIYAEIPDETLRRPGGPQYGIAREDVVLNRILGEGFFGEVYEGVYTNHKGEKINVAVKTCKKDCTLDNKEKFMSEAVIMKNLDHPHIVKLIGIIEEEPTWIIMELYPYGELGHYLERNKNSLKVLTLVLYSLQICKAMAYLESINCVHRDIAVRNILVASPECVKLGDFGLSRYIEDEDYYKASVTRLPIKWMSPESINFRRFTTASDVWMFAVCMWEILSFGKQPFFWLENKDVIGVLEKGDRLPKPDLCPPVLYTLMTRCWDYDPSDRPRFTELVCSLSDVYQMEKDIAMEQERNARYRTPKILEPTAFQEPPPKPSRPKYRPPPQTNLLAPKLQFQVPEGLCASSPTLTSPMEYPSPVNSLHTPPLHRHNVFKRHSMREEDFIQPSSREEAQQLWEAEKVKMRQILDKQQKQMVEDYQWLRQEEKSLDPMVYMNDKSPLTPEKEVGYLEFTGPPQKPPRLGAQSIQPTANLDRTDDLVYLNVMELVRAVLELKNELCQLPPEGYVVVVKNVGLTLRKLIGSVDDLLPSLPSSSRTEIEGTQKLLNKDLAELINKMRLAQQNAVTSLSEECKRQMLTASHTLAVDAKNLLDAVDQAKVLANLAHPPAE
Chain of Cytochrome P450 3A4 (P08684 whole entry): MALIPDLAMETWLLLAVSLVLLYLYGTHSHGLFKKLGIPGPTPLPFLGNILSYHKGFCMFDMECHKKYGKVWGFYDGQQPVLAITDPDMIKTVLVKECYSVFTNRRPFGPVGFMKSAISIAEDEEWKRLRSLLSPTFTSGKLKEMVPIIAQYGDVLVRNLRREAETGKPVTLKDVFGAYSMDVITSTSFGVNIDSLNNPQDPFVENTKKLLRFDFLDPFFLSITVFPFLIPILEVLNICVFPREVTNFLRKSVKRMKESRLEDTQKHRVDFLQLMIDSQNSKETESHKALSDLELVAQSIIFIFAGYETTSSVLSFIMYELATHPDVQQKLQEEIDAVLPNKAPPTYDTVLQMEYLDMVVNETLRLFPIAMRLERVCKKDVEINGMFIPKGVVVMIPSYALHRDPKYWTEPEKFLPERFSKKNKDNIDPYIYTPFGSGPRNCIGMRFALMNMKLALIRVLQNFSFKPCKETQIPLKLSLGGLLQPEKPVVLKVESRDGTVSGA
Chain of Cytochrome P450 2C9 (P11712 whole entry): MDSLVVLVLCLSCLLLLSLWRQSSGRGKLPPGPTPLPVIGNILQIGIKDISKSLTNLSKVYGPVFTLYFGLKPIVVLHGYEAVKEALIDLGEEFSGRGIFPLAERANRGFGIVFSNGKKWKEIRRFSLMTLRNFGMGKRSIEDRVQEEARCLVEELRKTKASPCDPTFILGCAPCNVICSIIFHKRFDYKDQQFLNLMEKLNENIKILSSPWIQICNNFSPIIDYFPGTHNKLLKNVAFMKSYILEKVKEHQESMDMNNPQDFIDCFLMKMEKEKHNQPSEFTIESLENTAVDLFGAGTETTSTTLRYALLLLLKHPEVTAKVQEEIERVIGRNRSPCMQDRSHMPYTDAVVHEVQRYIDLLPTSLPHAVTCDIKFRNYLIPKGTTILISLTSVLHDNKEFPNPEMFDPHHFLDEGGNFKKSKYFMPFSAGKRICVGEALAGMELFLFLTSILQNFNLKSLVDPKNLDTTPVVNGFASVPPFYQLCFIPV
Chain of Glyceraldehyde-3-phosphate dehydrogenase (P04406 whole entry): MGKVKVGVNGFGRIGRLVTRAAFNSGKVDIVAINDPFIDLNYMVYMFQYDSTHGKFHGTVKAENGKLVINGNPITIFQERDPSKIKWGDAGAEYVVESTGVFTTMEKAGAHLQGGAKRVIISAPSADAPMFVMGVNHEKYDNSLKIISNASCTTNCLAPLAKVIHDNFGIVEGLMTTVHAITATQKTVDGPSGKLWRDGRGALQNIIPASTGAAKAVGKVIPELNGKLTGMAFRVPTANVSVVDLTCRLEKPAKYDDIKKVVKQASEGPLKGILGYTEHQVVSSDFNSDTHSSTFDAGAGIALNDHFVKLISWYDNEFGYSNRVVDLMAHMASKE

In the case of `COC(=O)C(C(=O)Nc1ccc(OC)cc1)C1CCCCCC1` (stereo not drawn), the CC50 [1] is reported as > 40 µM (active).

In the case of `Cc1cc(-c2nnc(SCC(=O)NC3CCCC3)o2)no1`, the EC50 [2] is reported as > 50 µM (not active).

With `O=C1C(Cl)=C(N2CCN(Cc3ccc4c(c3)OCO4)CC2)C(=O)N1c1ccc([N+](=O)[O-])cc1` the IC50 [3] was > 100 µM (not active), the IC50 [4] was 4.59 µM (active) and the IC50 [5] was 4.68 µM (active).

For `O=C1C(Cl)=C(N2CCN(c3ccc(F)cc3)CC2)C(=O)N1c1ccc(Cl)c(Cl)c1`, the IC50 [4] was 19.1 µM (active) and the IC50 [5] was > 100 µM (not active).

In the case of `NC(=O)c1c(NC(=O)C2CCCO2)sc2c1CCCC2` (stereo not drawn), the EC50 [6] is reported as 7.26 µM (not active).

In the case of `COc1ccc2[nH]c3c(N4CCC(O)(c5cccc(C(F)(F)F)c5)CC4)ncnc3c2c1`, the CC50 [7] is reported as 33 µM (active), the AC50 [8] is reported as 9.77 µM (active) and the AC50 [9] is reported as 7.3 µM (active). The CC50 [1] was 29.4 µM (active).

With `C=CCn1c(P(=O)(O)c2ccccc2)nc2ccccc21` the IC50 [10] was 26.6 µM (not active), the AC50 [11] was 6.31 µM (inconclusive) and the AC50 [12] was 15.8 µM (inconclusive). For the same molecule, the AC50 [13] was 25.1 µM (inconclusive) and the AC50 [14] was “inconclusive”.

With `Cc1ccsc1C1Nc2ccc3ncccc3c2C2=C1C(=O)CCC2` (stereo not drawn) the EC50 [6] was 25 µM (not active).

In the case of `COc1ccc(Cn2c(-c3ccco3)nc3oc4cc(OC)ccc4c(=O)c3c2=O)cc1`, the EC50 [15] is reported as 25.5 µM (active), the EC50 [16] is reported as > 150 µM (not active) and the EC50 [17] is reported as > 150 µM (not active). For the same molecule, the EC50 [2] was > 50 µM (not active) and the IC50 [18] was 7.58 µM (active).
